Reference: patent US8993527B2, “Methods, compositions, and formulations for preventing or reducing adverse effects in a patient” (Pericor Therapeutics, Inc., priority 2005, dated 2015)

Key:
ischemic rat hearts = experiment: Rat heart ischemia model: tissue adenosine levels; type: in vivo; details: intraperitoneal; hearts excised after 60 minutes, incubated 60 minutes at 37° C.
Method: Male rats were injected intraperitonealy with either the AICA riboside analog, AICA riboside or saline, as a control. After 60 minutes, the hearts were excised and incubated at 37° C. for a further 60 minutes. Tissue extracts were prepared and analyzed for adenosine by high performance liquid chromatography (HPLC).

[1] = Phase 2 CABG trial: safety (serum glucose, uric acid, adverse events); type: in vivo, human
Method: In addition to the hemodynamic monitoring described above the following tests were performed at screening, on the first post-operative day and at discharge:
1. Hematology included hemoglobin, total white cell count and differential, hematocrit and platelet count.
4. Any adverse events were recorded throughout by the investigator, who assessed their severity and the relationship of these adverse experiences to the treatment.
11. Adverse Effects. The incidence, severity and drug-relatedness of any adverse effects were tabulated by treatment group by decreasing incidence of such effects in the high dose group. Statistical analysis was not performed.

[2] = system: isoproterenol (isuprel)-induced arrhythmias; experiment: Suppression of isoproterenol (isuprel)-induced arrhythmias; type: in vivo, rat; details: 1000 mg/kg intraperitoneally
Method: Five minutes later both animals were anesthetized with 330 mg/kg of chloral hydrate injected intraperitoneally. Then a single EKG lead was attached to each rat for simultaneous recording of the paired rats' electrocardiograms. To produce arrhythmia, each rat was injected subcutaneously with isuprel […].
Beginning 30 minutes after isuprel introduction, the electrocardiograph recording paper speed was run (5 cm/sec) for 10 minutes to count the arrhythmic beats of both animals.

[3] = system: patients undergoing CABG surgery; experiment: Phase 2 CABG trial: difficulty in weaning from bypass; type: in vivo, human; details: for WEANING TIME: Pts without Difficulty
Method: During surgery, anesthesia was maintained by continuous infusion of fentanyl and midazolam. Routine clinical parameters were recorded using standard operating room monitoring equipment. Continuous 2-lead Holter ECG and TEE data were recorded. Standard surgical procedures (e.g., aorta cross-clamping, crystalloid cardioplegia, cardiopulmonary bypass, hypothermia) were used. Anastomoses were constructed, aorta cross-clamp removed and patients were discontinued from bypass when body temperature was 37° C. The quality of anastomosis was judged by the surgeon. Difficulty in weaning from bypass was judged by need for one or more of the following: pacemaker, return to bypass, balloon pump or vasopressor administration. Hemodynamic measurements, including heart rate, arterial blood pressure, pulmonary capillary wedge pressure and cardiac output, were recorded before stemotomy, 15 and 30 min after bypass and upon chest closure. Radial artery and pulmonary artery pressures, myocardial and whole body temperature, O2 saturation, end-tidal CO2 and arterial blood gases were measured, and ECG recordings were obtained as clinically indicated. Hemodynamic variables (blood pressure, heart rate, pulmonary capillary wedge pressure) were controlled within 20% of baseline using prescribed regimens.
The incidence of adverse clinical outcomes, such as cardiac death (death of patient attributable to primarily cardiac causes, non-fatal transmural MI (as measured by the appearance of a new Q-wave on 12-lead ECG plus a CK-MB value of ≧50 units), non-transmural MI (CK-MB value of ≧50 units), congestive heart failure (low cardiac output requiring intra-aortic balloon pump or left ventricular assist device) or life-threatening dysrhythmia (ventricular fibrillation, or ventricular tachycardia requiring cardioversion or drug treatment) was compared between the placebo and treatment groups. For the diagnosis of myocardial infarction, ECG tracings and CK-MB values were assessed centrally by observers blinded to treatment. The difficulty of weaning the patient from bypass, if any, was compared between placebo and treatment groups by noting need for one or more of the following: pacemaker, return to bypass, balloon pump or use of vasopressors.
8. Difficulty in Weaning. Patients were considered to have difficulty in weaning if they needed one or more of the following interventions: pacemaker, return to bypass, balloon pump or use of vasopressors. The number of patients receiving each of the above interventions was analyzed using a X^2 and Fisher's exact test, as was the number of patients classified as having difficulty in weaning. In addition, the time to weaning (defined as time from cross-clamp removal to end of bypass) in the patients experiencing difficulty were compared by a 1-way analysis of variance.
As noted, patients were determined as being difficult to remove from cardiopulmonary bypass if they required one or more of the following interventions: insertion of a pacemaker, return to bypass, use of a balloon pump or administration of vasopressors, or another intervention which the investigation determines is indicative of difficulty in weaning. […] When a combination of the high and low dose groups were compared to placebo (Table 9b), the reduced need for vasopressor support approached statistical significance (p=0.08). […] There were no differences in any of the weaning difficulty parameters discussed above between the high and low dose groups (Table 9c).

NC(=O)c1ncn([C@@H]2O[C@H](CO)[C@@H](O)[C@H]2O)c1N [1 (1-110), 5-amino-1-β-D-ribofuranosyl-imidazole-4-carboxamide]
Tissue Adenosine Levels (% Increase vs. Saline) (ischemic rat hearts): 30%
SERUM GLUCOSE, MEAN BASELINE ([1]; 0.05 mg/kg/min (n = 41)): 108.5 ± 4.8 mg/dL
SERUM URIC ACID, MEAN BASELINE ([1]; 0.05 mg/kg/min (n = 41)): 5.9 ± 0.2 mg/dL
SERUM GLUCOSE-MEAN CHANGES FROM BASELINE ([1]; 0.05 mg/kg/min, 24 HR POST): 44.2 ± 7.4 mg/dL
SERUM URIC ACID-MEAN CHANGES FROM BASELINE ([1]; 0.05 mg/kg/min, 24 HR POST): -0.5 ± 0.2 mg/dL
SERUM GLUCOSE-MEAN CHANGES FROM BASELINE ([1]; 0.05 mg/kg/min, DISCHARGE): 18.7 ± 6.3 mg/dL
SERUM URIC ACID-MEAN CHANGES FROM BASELINE ([1]; 0.05 mg/kg/min, DISCHARGE): 0.3 ± 0.2 mg/dL
SERUM GLUCOSE-MEAN CHANGES FROM BASELINE ([1]; 0.05 mg/kg/min, ICU + 0): 65.6 + 7.6 mg/dl
SERUM URIC ACID-MEAN CHANGES FROM BASELINE ([1]; 0.05 mg/kg/min, ICU + 0): -0.3 ± 0.1 mg/dL
SERUM GLUCOSE-MEAN CHANGES FROM BASELINE ([1]; 0.05 mg/kg/min, ICU + 4 HR): 53.6 + 11.9 mg/dl
SERUM URIC ACID-MEAN CHANGES FROM BASELINE ([1]; 0.05 mg/kg/min, ICU + 4 HR): -0.1 ± 0.1 mg/dL
SERUM GLUCOSE-MEAN CHANGES FROM BASELINE ([1]; 0.05 mg/kg/min, ICU + 8 HR): 58.8 + 12.1 mg/dl
SERUM URIC ACID-MEAN CHANGES FROM BASELINE ([1]; 0.05 mg/kg/min, ICU + 8 HR): -0.0 ± 0.1 mg/dL
SERUM GLUCOSE-MEAN CHANGES FROM BASELINE ([1]; 0.05 mg/kg/min, POST CPB): 116.5 ± 10.7 mg/dL
SERUM URIC ACID-MEAN CHANGES FROM BASELINE ([1]; 0.05 mg/kg/min, POST CPB): -0.6 ± 0.1 mg/dL
SERUM GLUCOSE-MEAN CHANGES FROM BASELINE ([1]; 0.05 mg/kg/min, PRE CPB): 18.6 ± 7.0 mg/dL
SERUM URIC ACID-MEAN CHANGES FROM BASELINE ([1]; 0.05 mg/kg/min, PRE CPB): -0.1 ± 0.1 mg/dL
SERUM GLUCOSE, MEAN BASELINE ([1]; 0.10 mg/kg/min (n = 35)): 120.6 ± 7.3 mg/dL
SERUM URIC ACID, MEAN BASELINE ([1]; 0.10 mg/kg/min (n = 35)): 5.7 ± 0.2 mg/dL
SERUM URIC ACID-MEAN CHANGES FROM BASELINE ([1]; 0.10 mg/kg/min, 24 HR POST): 0.3 ± 0.3 mg/dL
SERUM GLUCOSE-MEAN CHANGES FROM BASELINE ([1]; 0.10 mg/kg/min, DISCHARGE): 19.2 ± 7.0 mg/dL
SERUM URIC ACID-MEAN CHANGES FROM BASELINE ([1]; 0.10 mg/kg/min, DISCHARGE): -0.1 ± 0.2 mg/dL
SERUM GLUCOSE-MEAN CHANGES FROM BASELINE ([1]; 0.10 mg/kg/min, ICU + 0): 59.8 + 13.6 mg/dl
SERUM URIC ACID-MEAN CHANGES FROM BASELINE ([1]; 0.10 mg/kg/min, ICU + 0): 1.5 ± 0.2 mg/dL
SERUM GLUCOSE-MEAN CHANGES FROM BASELINE ([1]; 0.10 mg/kg/min, ICU + 4 HR): 55.5 + 9.6 mg/dl
SERUM URIC ACID-MEAN CHANGES FROM BASELINE ([1]; 0.10 mg/kg/min, ICU + 4 HR): 1.6 ± 0.2 mg/dL
SERUM GLUCOSE-MEAN CHANGES FROM BASELINE ([1]; 0.10 mg/kg/min, ICU + 8 HR): 44.4 + 7.5 mg/dl
SERUM URIC ACID-MEAN CHANGES FROM BASELINE ([1]; 0.10 mg/kg/min, ICU + 8 HR): 1.4 ± 0.2 mg/dL
SERUM GLUCOSE-MEAN CHANGES FROM BASELINE ([1]; 0.10 mg/kg/min, POST CPB): 120.6 ± 15.9 mg/dL
SERUM URIC ACID-MEAN CHANGES FROM BASELINE ([1]; 0.10 mg/kg/min, POST CPB): 0.4 ± 0.1 mg/dL
SERUM GLUCOSE-MEAN CHANGES FROM BASELINE ([1]; 0.10 mg/kg/min, PRE CPB): 4.8 ± 3.4 mg/dL
SERUM URIC ACID-MEAN CHANGES FROM BASELINE ([1]; 0.10 mg/kg/min, PRE CPB): 0.4 ± 0.1 mg/dL
uric acid effects in the initial high dose patients ([1]; 0.19 or 0.38 mg/kg/min, five drug-treated patients): significant hyperuricemia and elevated urinary uric acid levels with crystalluria
drug-treated patients with adverse events ([1]; low dose group (0.05 mg/kg/min)): 28/41
ventricular fibrillation [2]: complete suppression
WEANING TIME ([3]; 0.05 mg/kg/min): 20.4 +/− 2.5
WEANING TIME ([3]; 0.1 mg/kg/min): 16.3 +/− 1.9
PATIENTS WITH ANY DIFFICULTY WEANING ([3]; 0.05 + 0.10, 76 patients): 15 (19.7%)
PATIENTS WITH ANY DIFFICULTY WEANING ([3]; 0.05, 41 patients): 7 (17%)
PATIENTS WITH ANY DIFFICULTY WEANING ([3]; 0.10, 35 patients): 8 (23%)
